Results reported in patent US20100069393A1, “METHOD OF TREATMENT AND AGENTS USEFUL FOR SAME” (PRANA BIOTECHNOLOGY LIMITED, priority 2006, published 2010).

How the values were obtained:
[1] = Cytotoxicity: viability of M17 cells; settings: human, M17 neuroblastoma cells, Cytotoxicity (% viable at 1 and 10 uM); for viability at 1 uM: test compound 1 uM; for viability at 10 uM: test compound 10 uM
[2] = In vivo toxicity, visual observations; settings: number of days
[3] = Neurotoxicity assay: MTS viability of primary cortical neuronal cultures; format: cell-based, mouse; settings: BL6Jx129sv, mouse, primary cortical neuronal cultures, Neuronal cells, read-out: Cytotoxicity (% viable at 1 and 10 uM); for viability at 4 days, 1 uM: test compound 1 uM; for viability at 4 days, 10 uM: test compound 10 uM
Description: Media was then replaced with Neurobasal media (Invitrogen Life Technologies) and B27 supplements (Invitrogen Life Technologies). Cultures were maintained at 37° C. in 5% CO2. Prior to experimentation, the culture medium was replaced with Neurobasal media and B27 minus antioxidants (Invitrogen Life Technologies).
Cell viability is determined using the MTS assay. Culture medium is replaced with fresh neurobasal medium plus B27 supplements minus antioxidants. 1/10th volume MTS solution (Cell Titre 96 Aqueous One, Promega Corporation) and incubated at 37° C., 2 hrs. 200 microlitre aliquots are measured with a spectrophotometer at 560 nm.
Neuronal cortical cells were cultured for five days as per Assay 2 in NB media and B27 supplement.
On day six the test compounds were added to the neuronal cell cultures in NB media and B27 supplement minus antioxidants.
Test compounds were dissolved in 100% DMSO to a concentration of 2.5 mM (10 mM if excess compound was weighed out per vial—then diluted to 2.5 mM). […] Test compounds were not added directly to cells, instead they were added to a 48 well ‘Drug Plate’ as comprised below:
The Drug Plate was incubated at 37° C. for 15 mins. 200 μl of each well was added in triplicate to the corresponding cell plate. The cell plate was incubated at 37 C, for 4 days.
On completion of the assay, 1/10 volume MTS was added per well of plate (i.e. 25 μl/250 μl). The plates were incubated at 37 C for 2 hrs, and then absorbance was read at 560 nm.

[4] = Mice plasma concentration; format: in vivo; settings: for Mice plasma concentration: presence in plasma at one or two time points (between 30 min and 4 h)

Compound | viability at 1 uM [1] | viability at 10 uM [1] | Toxicity at 30 mg/kg [2] | further results
O=c1c2ccc(I)c(O)c2ncn1-c1ccc(F)cc1F | 90.3% | 80.3% | 6 days, 2/4 deaths | –
O=C(NCc1ccc(F)cc1)c1cnc2c(O)c(I)ccn2c1=O | 89.6% | 23.4% | 7 days, 4/4 deaths | –
CC(C)c1cnc2c(O)c(I)ccn2c1=O | 96.7% | 44.2% | 10 days, 1/4 death, remaining 1/3 mild sings | –
CCCCc1cnc2c(O)cccn2c1=O | 73.6% | 37% | 10 days, none | –
CCn1cnc2c(O)c(Cl)cc(Cl)c2c1=O | 104% | 95.9% | – | viability at 4 days, 1 uM [3]: 93%; viability at 4 days, 10 uM [3]: 58%
O=c1c2c(Cl)cc(Cl)c(O)c2ncn1N1CCCC1 | – | – | 10 days, none | viability at 4 days, 1 uM [3]: 101%; viability at 4 days, 10 uM [3]: 88%
O=c1c2c(Cl)cc(Cl)c(O)c2ncn1-c1ccc(Cl)cn1 | 86.9% | 70.5% | 10 days, none | viability at 4 days, 1 uM [3]: 94%; viability at 4 days, 10 uM [3]: 58%
O=c1c2c(Cl)cc(Cl)c(O)c2ncn1N1CCCCC1 | 87.9% | 72.7% | 10 days, none | viability at 4 days, 1 uM [3]: 98%; viability at 4 days, 10 uM [3]: 51%
O=c1c(-c2ccc(Cl)cc2)cnc2c(O)cccn12 | 41.2% | 25.8% | – | viability at 4 days, 1 uM [3]: 97%; viability at 4 days, 10 uM [3]: 42%
CCCCc1cnc2c(O)c(I)ccn2c1=O | 102% | 58.7% | 10 days, 2/4 deaths | –
CCNC(=O)c1cnc2c(O)c(CC)ncc2c1.Cl | 84.4% | 92.1% | – | Mice plasma concentration (single dose) ([4]; single dose, one or two time points (between 30 min and 4 h)): Up to 125.5 ng/mL (Single dose)
CCNCCn1cnc2c(O)c(Cl)cc(Cl)c2c1=O | 100% | 107% | – | –
CCCCCn1cnc2c(O)c(Cl)cc(Cl)c2c1=O | 81.3% | 56.8% | – | –
CNS(=O)(=O)Cc1ccc(-n2cnc3c(O)c(Cl)cc(Cl)c3c2=O)cc1 | 93% | 98% | – | –
CCn1cnc2c(O)c(I)ccc2c1=O | – | – | 10 days, none | –
CN(C)Cc1cnc2c(Cl)cc(Cl)c(O)c2n1.Cl | – | – | – | viability at 4 days, 1 uM [3]: 106%; viability at 4 days, 10 uM [3]: 93%; Mice plasma concentration [4]: Up to 1000 ng/mL
O=c1c2cccc(O)c2ncn1Cc1nc2ccccc2[nH]1 | 107% | 108% | – | –
O=C(NCCc1c[nH]cn1)c1ccc2c(Cl)cc(Cl)c(O)c2n1 | – | – | – | viability at 4 days, 1 uM [3]: 91%; viability at 4 days, 10 uM [3]: 84%; Mice plasma concentration [4]: Up to 2694 ng/mL
O=c1c2c(Cl)cc(Cl)c(O)c2ncn1-c1nc2ccccc2s1 | 82.7% | 63.9% | – | –
CCN(CC)C(=O)Cn1cnc2c(O)c(I)ccc2c1=O | 92.2% | 98.7% | – | –
CCN(CC)C(=O)Cn1cnc2c(O)cccc2c1=O | 118% | 102% | – | –
Nc1cc(Cn2cnc3c(O)c(Cl)cc(Cl)c3c2=O)ccn1 | 95.1% | 93.9% | 10 days, 1 of 4 deaths | –
CCC(C)Cn1cnc2c(O)cccc2c1=O (centres unmarked) | 103% | 47.2% | – | –
O=c1c2cccc(O)c2ncn1-c1ccc(F)cc1F | 104% | 104% | – | –
O=c1c2ccc(I)c(O)c2ncn1-c1ccc(F)cc1 | 94.6% | 30.2% | – | –

Compound | viability at 1 uM [1] | viability at 10 uM [1] | Toxicity at 30 mg/kg [2] | further results
O=c1c2c(Cl)cc(I)c(O)c2ncn1Cc1ccccn1 | 102% | 99.2% | – | –
CCCc1cnc2c(O)c(Cl)ccn2c1=O | 98.1% | 38.9% | – | –
O=c1c2c(Cl)ccc(O)c2ncn1CC1CC1 | 86.3% | 57.6% | – | –
O=c1c2cccc(O)c2ncn1-c1nc2ccccc2[nH]1 | 108% | 103% | – | –
O=C1NC(=O)c2cc(-n3cnc4c(O)cccc4c3=O)ccc21 | 102% | 103% | – | –
CCCCCn1cnc2c(O)c(I)ccc2c1=O | 86.3% | 38.5% | – | –
CCC(C)Cn1cnc2c(O)c(I)ccc2c1=O (centres unmarked) | 42.8% | 19.3% | – | –
O=C1NC(=O)c2cc(-n3cnc4c(O)c(Cl)cc(Cl)c4c3=O)ccc21 | 85.4% | 93.3% | 10 days, none | –
CCc1cnc2c(O)cccn2c1=O | 96.1% | 27.1% | – | –
CCc1cnc2c(O)cccn2c1=S | 93.3% | 73.7% | – | –
O=c1c2c(Cl)cc(Cl)c(O)c2ncn1CCNC1CC1 | 98.8% | 96.2% | – | –
CCCCc1cnc2c(O)c(-c3cccnc3)ccn2c1=O | 92.1% | 38.2% | – | –
O=C(Nc1nc2ccc(F)cc2s1)c1cnc2c(O)cccn2c1=O | 60.1% | 34.2% | – | –
CCC(C)Cn1cnc2c(O)c(Cl)cc(Cl)c2c1=O (centres unmarked) | 85.1% | 39.4% | – | –
O=C(Cn1cnc2c(O)cccc2c1=O)Nc1ccccn1 | 110% | 98.2% | – | –
O=C(O)Cn1cnc2c(O)c(Cl)cc(Cl)c2c1=O | 105% | 101% | 10 days, none | –
CCCCc1cnc2c(O)c(-c3ccc(F)cc3)ccn2c1=O | 101% | 37.9% | – | –
O=c1c2cccc(O)c2ncn1CC1CC1 | 104% | 111% | – | –
O=c1c2cccc(O)c2ncn1-c1ccc(F)cc1 | 92.7% | 67.5% | – | –
CCCCn1cnc2c(O)c(Cl)cc(Cl)c2c1=O | 105% | 95.4% | – | viability at 4 days, 1 uM [3]: 104%; viability at 4 days, 10 uM [3]: 85%
Br.O=c1c2c(Cl)cc(Cl)c(O)c2ncn1Cc1cccc(Cn2cnc3c(Cl)c(Cl)cc(Cl)c3c2=O)n1 | 94.9% | 26.8% | 10 days, none | viability at 4 days, 1 uM [3]: 89%; viability at 4 days, 10 uM [3]: 67%
Cc1cnc(-n2cnc3c(O)c(Cl)cc(Cl)c3c2=O)s1 | – | – | 10 days, mild signs | viability at 4 days, 1 uM [3]: 94%; viability at 4 days, 10 uM [3]: 70%
CN(C)Cc1ccc2c(Cl)cc(I)c(O)c2n1 | 97.9% | 24.4% | 1 day, 3/4 deaths | –
O=c1c2c(Cl)cc(I)c(O)c2ncn1CC1CC1 | 97.9% | 82.3% | – | Toxicity at 10 mg/kg ([2]; 10 mg/kg): At 10 mg/kg: 10 days, none
Nn1cnc2c(O)c(Cl)cc(Cl)c2c1=O | 113% | 104% | – | viability at 4 days, 1 uM [3]: 103%; viability at 4 days, 10 uM [3]: 101%
